{
  "source": "the NIST ThermoML archive (doi:10.1021/acs.jced.8b00663)",
  "key": {"[1]": {"settings": "Crystal; DTA"}, "[2]": {"assay": "Molar enthalpy of transition or fusion", "settings": "Crystal; DSC"}},
  "note": "± gives the expanded uncertainty stated by the source.",
  "data": [
    {"molecule": "CCOC(=O)C1=C[C@]2(CC)CCCN3CCc4c(n1c1ccccc41)[C@@H]32", "note": "[vinpocetine]", "values": [
      {"measurement": "Normal melting temperature", "setting": "[1]", "value": "149.00 ± 1.1", "unit": "°C"},
      {"measurement": "Molar enthalpy of transition or fusion", "setting": "[2]", "value": "8.93 ± 0.406", "unit": "kcal/mol"}
    ]}
  ]
}
